Patent US20150105252A1, “SUBSTITUTED PYRAZOLES AS HERBICIDES” (E I DU PONT DE NEMOURS AND COMPANY, priority 2013, published 2015)

How the values were obtained:
oilseed rape [1] = test: Test D postemergence; assay type: in vivo, Brassica napus; details: scale 0 to 100
Summary of the method: (§1)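 Seeds are planted in silt loam and treated preemergence, while parallel plantings in a peat moss/vermiculite medium with starter nutrients receive postemergence sprays at the 1- to 4-leaf stage. All formulations use a non-phytotoxic solvent mixture with surfactant. Plants are kept in a controlled growth environment and rated visually after 14–21 days.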

bromegrass, downy = test: Test D preemergence; assay type: in vivo, Bromus tectorum; details: Preemergence, scale 0 to 100
Summary of the method: as §1

deadnettle = test: Test D postemergence; assay type: in vivo, Lamium amplexicaule; details: scale 0 to 100
Summary of the method: as §1

field poppy = test: Test D preemergence; assay type: in vivo, Papaver rhoeas; details: Preemergence, scale 0 to 100
Summary of the method: as §1

field violet = test: Test D preemergence; assay type: in vivo, Viola arvensis; details: Preemergence, scale 0 to 100
Summary of the method: as §1

kochia = test: Test D postemergence; assay type: in vivo, Kochia scoparia; details: scale 0 to 100
Summary of the method: as §1

wheat, winter = test: Test D preemergence; assay type: in vivo, Triticum aestivum; details: Preemergence, scale 0 to 100
Summary of the method: as §1

wheat, spring = test: Test D preemergence; assay type: in vivo, Triticum aestivum; details: Preemergence, scale 0 to 100
Summary of the method: as §1

bluegrass [2] = test: Test D postemergence; assay type: in vivo, Poa annua; details: scale 0 to 100
Summary of the method: as §1

blackgrass = test: Test D postemergence; assay type: in vivo, Alopecurus myosuroides; details: scale 0 to 100
Summary of the method: as §1

windgrass = test: Test D preemergence; assay type: in vivo, Apera spica-venti; details: Preemergence, scale 0 to 100
Summary of the method: as §1

chickweed = test: Test D postemergence; assay type: in vivo, Stellaria media; details: scale 0 to 100
Summary of the method: as §1

foxtail, green = test: Test D preemergence; assay type: in vivo, Setaria viridis; details: Preemergence, scale 0 to 100
Summary of the method: as §1

oilseed rape [3] = test: Test D preemergence; assay type: in vivo, Brassica napus; details: Preemergence, scale 0 to 100
Summary of the method: as §1

canarygrass = test: Test D postemergence; assay type: in vivo, Phalaris minor; details: scale 0 to 100
Summary of the method: as §1

bluegrass [4] = test: Test D preemergence; assay type: in vivo, Poa annua; details: Preemergence, scale 0 to 100
Summary of the method: as §1

ryegrass, Italian = test: Test D postemergence; assay type: in vivo, Lolium multiflorum; details: scale 0 to 100
Summary of the method: as §1

galium = test: Test D preemergence; assay type: in vivo, Galium aparine; details: Preemergence, scale 0 to 100
Summary of the method: as §1

buckwheat, wild = test: Test D postemergence; assay type: in vivo, Polygonum convolvulus; details: scale 0 to 100
Summary of the method: as §1

mustard, wild = test: Test D postemergence; assay type: in vivo, Sinapis arvensis; details: scale 0 to 100
Summary of the method: as §1

radish, wild = test: Test D postemergence; assay type: in vivo, Raphanus raphanistrum; details: scale 0 to 100
Summary of the method: as §1

CCc1cc(C(=O)NCC(F)(F)F)nn1Cc1ccnc(SC(F)(F)F)c1 [Compound 214]
Oilseed Rape plant response rating (oilseed rape [1]; Postemergence, 31 g ai/ha): 65
Oilseed Rape plant response rating (oilseed rape [1]; Postemergence, 125 g ai/ha): 75
Oilseed Rape plant response rating (oilseed rape [1]; Postemergence, 250 g ai/ha): 100
Oilseed Rape plant response rating (oilseed rape [1]; postemergence, 62 g ai/ha): 65
Plant response rating, Bromegrass, Downy (bromegrass, downy; 31 g ai/ha): 15
Plant response rating, Bromegrass, Downy (bromegrass, downy; 62 g ai/ha): 25
Plant response rating, Bromegrass, Downy (bromegrass, downy; 125 g ai/ha): 35
Plant response rating, Bromegrass, Downy (bromegrass, downy; 250 g ai/ha): 80
Deadnettle plant response rating (deadnettle; Postemergence, 31 g ai/ha): 50
Deadnettle plant response rating (deadnettle; Postemergence, 125 g ai/ha): 60
Deadnettle plant response rating (deadnettle; Postemergence, 250 g ai/ha): 70
Deadnettle plant response rating (deadnettle; postemergence, 62 g ai/ha): 50
Plant response rating, Field Poppy (field poppy; 62 g ai/ha): 100
Plant response rating, Field Poppy (field poppy; 125 g ai/ha): 100
Plant response rating, Field Poppy (field poppy; 250 g ai/ha): 100
Plant response rating, Field Violet (field violet; 62 g ai/ha): 100
Plant response rating, Field Violet (field violet; 125 g ai/ha): 100
Plant response rating, Field Violet (field violet; 250 g ai/ha): 100
Kochia plant response rating (kochia; Postemergence, 31 g ai/ha): 70
Kochia plant response rating (kochia; Postemergence, 125 g ai/ha): 80
Kochia plant response rating (kochia; Postemergence, 250 g ai/ha): 85
Kochia plant response rating (kochia; postemergence, 62 g ai/ha): 70
Plant response rating, Wheat, Winter (wheat, winter; 62 g ai/ha): 15
Plant response rating, Wheat, Winter (wheat, winter; 125 g ai/ha): 55
Plant response rating, Wheat, Winter (wheat, winter; 250 g ai/ha): 75
Plant response rating, Wheat, Spring (wheat, spring; 62 g ai/ha): 10
Plant response rating, Wheat, Spring (wheat, spring; 125 g ai/ha): 40
Plant response rating, Wheat, Spring (wheat, spring; 250 g ai/ha): 75
Bluegrass plant response rating (bluegrass [2]; Postemergence, 31 g ai/ha): 15
Bluegrass plant response rating (bluegrass [2]; Postemergence, 125 g ai/ha): 15
Bluegrass plant response rating (bluegrass [2]; Postemergence, 250 g ai/ha): 20
Bluegrass plant response rating (bluegrass [2]; postemergence, 62 g ai/ha): 15
Blackgrass plant response rating (blackgrass; Postemergence, 31 g ai/ha): 15
Blackgrass plant response rating (blackgrass; Postemergence, 125 g ai/ha): 20
Blackgrass plant response rating (blackgrass; Postemergence, 250 g ai/ha): 70
Blackgrass plant response rating (blackgrass; postemergence, 62 g ai/ha): 15
Plant response rating, Windgrass (windgrass; 62 g ai/ha): 85
Plant response rating, Windgrass (windgrass; 125 g ai/ha): 90
Plant response rating, Windgrass (windgrass; 250 g ai/ha): 100
Chickweed plant response rating (chickweed; Postemergence, 31 g ai/ha): 65
Chickweed plant response rating (chickweed; Postemergence, 125 g ai/ha): 70
Chickweed plant response rating (chickweed; Postemergence, 250 g ai/ha): 70
Chickweed plant response rating (chickweed; postemergence, 62 g ai/ha): 65
Plant response rating, Foxtail, Green (foxtail, green; 62 g ai/ha): 100
Plant response rating, Foxtail, Green (foxtail, green; 125 g ai/ha): 100
Plant response rating, Foxtail, Green (foxtail, green; 250 g ai/ha): 100
Plant response rating, Oilseed Rape (oilseed rape [3]; 62 g ai/ha): 65
Plant response rating, Oilseed Rape (oilseed rape [3]; 125 g ai/ha): 100
Plant response rating, Oilseed Rape (oilseed rape [3]; 250 g ai/ha): 100
Canarygrass plant response rating (canarygrass; Postemergence, 31 g ai/ha): 15
Canarygrass plant response rating (canarygrass; Postemergence, 125 g ai/ha): 15
Canarygrass plant response rating (canarygrass; Postemergence, 250 g ai/ha): 30
Canarygrass plant response rating (canarygrass; postemergence, 62 g ai/ha): 15
Plant response rating, Bluegrass (bluegrass [4]; 31 g ai/ha): 40
Plant response rating, Bluegrass (bluegrass [4]; 62 g ai/ha): 65
Plant response rating, Bluegrass (bluegrass [4]; 125 g ai/ha): 85
Plant response rating, Bluegrass (bluegrass [4]; 250 g ai/ha): 100
Ryegrass, Italian plant response rating (ryegrass, Italian; Postemergence, 31 g ai/ha): 10
Ryegrass, Italian plant response rating (ryegrass, Italian; Postemergence, 125 g ai/ha): 20
Ryegrass, Italian plant response rating (ryegrass, Italian; Postemergence, 250 g ai/ha): 45
Ryegrass, Italian plant response rating (ryegrass, Italian; postemergence, 62 g ai/ha): 10
Plant response rating, Galium (galium; 62 g ai/ha): 85
Plant response rating, Galium (galium; 125 g ai/ha): 100
Plant response rating, Galium (galium; 250 g ai/ha): 100
Buckwheat, Wild plant response rating (buckwheat, wild; Postemergence, 31 g ai/ha): 70
Buckwheat, Wild plant response rating (buckwheat, wild; Postemergence, 125 g ai/ha): 70
Buckwheat, Wild plant response rating (buckwheat, wild; Postemergence, 250 g ai/ha): 80
Buckwheat, Wild plant response rating (buckwheat, wild; postemergence, 62 g ai/ha): 70
Mustard, Wild plant response rating (mustard, wild; Postemergence, 31 g ai/ha): 70
Mustard, Wild plant response rating (mustard, wild; Postemergence, 125 g ai/ha): 100
Mustard, Wild plant response rating (mustard, wild; Postemergence, 250 g ai/ha): 100
Mustard, Wild plant response rating (mustard, wild; postemergence, 62 g ai/ha): 70
Radish, Wild plant response rating (radish, wild; Postemergence, 31 g ai/ha): 65
Radish, Wild plant response rating (radish, wild; Postemergence, 125 g ai/ha): 70
Radish, Wild plant response rating (radish, wild; Postemergence, 250 g ai/ha): 100
Radish, Wild plant response rating (radish, wild; postemergence, 62 g ai/ha): 65
